Laboratory results taken from patent US4069379A, “Semi-synthetic oleandomycins” (Pfizer Inc., priority 1976, dated 1978).
≈ marks a conversion by molar mass, not a printed value. Read-outs that look alike come from different tables or passages of the source.

Experiments:
Staph. aureus 01A400R = experiment: minimum inhibitory concentration (MIC), Staph. aureus 01A400R; format: cell-based; conditions: Staphylococcus aureus, read-out: MIC Values, Staph. aureus 01A400R
Excerpt: (§1) The oleandomycin compounds of the present invention are effective in inhibiting the growth of microorganisms, especially Gram-positive microorganisms. The high activity against Gram-positive organisms shown by these compounds is contrasted in some respects with the lower activity against Gram-negative organisms. The following table illustrates the in vitro antibiotic spectrum of the compounds of the instant invention. The tests were run according to the "minimum inhibitory concentration"(MIC) procedure of Ericsson and Sherris [H. M. Ericsson and J. C. Sherris, Acta. Pathol. Microbiol. Scand. Suppl., 217B 64 (1971)].

B. subtilis = experiment: minimum inhibitory concentration (MIC), B. subtilis; format: cell-based; conditions: Bacillus subtilis, in vitro, Gram-positive
Excerpt: as §1

Salm. typhm. 58D009 = experiment: minimum inhibitory concentration (MIC), Salm. typhm. 58D009; format: cell-based; conditions: in vitro; Salm. typhm. 58D009, Gram-negative
Excerpt: as §1

E. coli 51A266 = experiment: minimum inhibitory concentration (MIC), E. coli 51A266; format: cell-based; conditions: Escherichia coli; in vitro; E. coli 51A266, Gram-negative
Excerpt: as §1

Staph. aureus 01A005 [1] = experiment: minimum inhibitory concentration (MIC), Staph. aureus 01A005; format: cell-based; conditions: Staphylococcus aureus; in vitro; Staph. aureus 01A005, Gram-positive
Excerpt: as §1

Klebsiella pn. 53A009 = experiment: minimum inhibitory concentration (MIC), Klebsiella pn. 53A009; format: cell-based; conditions: in vitro; Klebsiella pn. 53A009, Gram-negative
Excerpt: as §1

Staph. aureus 01A005 [2] = experiment: protection against in vivo infection of mice infected with Staph. aureus 01A005; conditions: subcutaneous or oral administration to mice infected with Staph. aureus 01A005; compared with natural oleandomycin
Procedure: The ability of the compounds of the present invention to protect against in vivo infections was determined by subcutaneous or oral administration to mice infected with Staph. aureus 01A005. Using the test method described by Retsema [J. A. Retsema et al., Antimicr.

[3] = in vitro, Staph. aureus 01A400R, Gram-positive

| SMILES | MIC (Staph. aureus 01A400R; [3]) | MIC (B. subtilis) | MIC (Salm. typhm. 58D009) | MIC (E. coli 51A266) | MIC (Staph. aureus 01A005 [1]) | MIC (Klebsiella pn. 53A009) | protection against infection (Staph. aureus 01A005 [2]) | MIC (Staph. aureus 01A400R; 01A400R) |
| --- | --- | --- | --- | --- | --- | --- | --- | --- |
| C=C1CC(C)C(OC2OC(C)CC(N(C)C)C2OC(C)=O)C(C)C(OC2CC(OC)C(OC(C)=O)C(C)O2)C(C)C(=O)OC(C)C(C)C(OC(=O)C(F)(F)F)C(C)C1=O (centres unmarked) [Compound II Ac Ac drawing 7, 8,8a-Deoxy-8,8a-Methylene-2',4"-Diacetyl-11-Trifluoroacetyloleandomycin] | 200 µg/mL (≈ 235 µM) | 25 µg/mL (≈ 29.3 µM) | > 200 µg/mL | > 200 µg/mL | 25 µg/mL (≈ 29.3 µM) | > 200 µg/mL |  |  |
| COC1CC(OC2C(C)C(=O)OC(C)C(C)C(O)C(C)C(=O)C3(CC3)CC(C)C(OC3OC(C)CC(N(C)C)C3O)C2C)OC(C)C1O (centres unmarked) [Compound III H H H, 8,8a-Deoxy-8,8a-Cyclopropyloleandomycin] | 1.56 µg/mL (≈ 2.27 µM) | 0.39 µg/mL (≈ 0.569 µM) | > 200 µg/mL | > 200 µg/mL | 0.2 µg/mL (≈ 0.292 µM) | > 200 µg/mL | protection against infection which was comparable to natural oleandomycin |  |
| COC1CC(OC2C(C)C(=O)OC(C)C(C)C(OC(C)=O)C(C)C(=O)C3(CC3)CC(C)C(OC3OC(C)CC(N(C)C)C3OC(C)=O)C2C)OC(C)C1O (centres unmarked) [Compound III Ac H Ac, 8,8a-Deoxy-8,8a-Cyclopropyl-2',11-Diacetyloleandomycin] | 3.12 µg/mL (≈ 4.05 µM) | 0.78 µg/mL (≈ 1.01 µM) | > 200 µg/mL | > 200 µg/mL | 0.2 µg/mL (≈ 0.26 µM) | > 200 µg/mL |  |  |
| COC1CC(OC2C(C)C(=O)OC(C)C(C)C(O[Si](C)(C)C)C(C)C(=O)C3(CC3)CC(C)C(OC3OC(C)CC(N(C)C)C3OC(C)=O)C2C)OC(C)C1OC(C)=O (centres unmarked) [Compound III Ac Ac Me3 Si, 8,8a-Deoxy-8,8a-Cycloproyl-2',4"-Diacetyl-11-Trimethylsilyloleandomycin] |  | 12.5 µg/mL (≈ 14.8 µM) | > 200 µg/mL | > 200 µg/mL | 3.12 µg/mL (≈ 3.7 µM) | > 200 µg/mL |  | > 200 µg/mL |
| C=C1CC(C)C(OC2OC(C)CC(N(C)C)C2O)C(C)C(OC2CC(OC)C(O)C(C)O2)C(C)C(=O)OC(C)C(C)C(O)C(C)C1=O (centres unmarked) [Compound II H H H, 8,8a-Deoxy-8,8a-Methylene-Oleandomycin] | 25 µg/mL (≈ 37.2 µM) |  |  | > 200 µg/mL | 6.25 µg/mL (≈ 9.3 µM) | > 200 µg/mL | protection against infection which was comparable to natural oleandomycin |  |
| C=C1CC(C)C(OC2OC(C)CC(N(C)C)C2OC(C)=O)C(C)C(OC2CC(OC)C(OC(C)=O)C(C)O2)C(C)C(=O)OC(C)C(C)C(OC(C)=O)C(C)C1=O (centres unmarked) [Compound II Ac Ac Ac, 8,8a-Deoxy-8,8a-Methylene-2',4",11-Triacetyloleandomycin] | 200 µg/mL (≈ 251 µM) |  | > 200 µg/mL | > 200 µg/mL | 25 µg/mL (≈ 31.3 µM) | > 200 µg/mL |  |  |
| C=C1CC(C)C(OC2OC(C)CC(N(C)C)C2OC(C)=O)C(C)C(OC2CC(OC)C(O)C(C)O2)C(C)C(=O)OC(C)C(C)C(OC(C)=O)C(C)C1=O (centres unmarked) [Compound II Ac H Ac, 8,8a-Deoxy-8,8a-Methylene-2',11-Diacetyloleandomycin] | > 200 µg/mL | 3.12 µg/mL (≈ 4.13 µM) | > 200 µg/mL | > 200 µg/mL | 3.12 µg/mL (≈ 4.13 µM) | > 200 µg/mL |  |  |
| COC1CC(OC2C(C)C(=O)OC(C)C(C)C(OC(C)=O)C(C)C(=O)C3(CC3)CC(C)C(OC3OC(C)CC(N(C)C)C3OC(C)=O)C2C)OC(C)C1OC(C)=O (centres unmarked) [Compound III Ac Ac Ac, 8,8a-Deoxy-8,8a-Cyclopropyl-2',4",11-Triacetyloleandomycin] | 12.5 µg/mL (≈ 15.4 µM) | 3.12 µg/mL (≈ 3.84 µM) | > 200 µg/mL | > 200 µg/mL | 1.56 µg/mL (≈ 1.92 µM) | > 200 µg/mL |  |  |
